Data reported in patent US9593305B2, “Differentiation of pluripotent stem cells” (Janssen Biotech, Inc., priority 2008, dated 2017).

System: H1 human embryonic stem cells
Experiment: Screen of CDK, GSK3 and TRK inhibitors with or without GDF-8, SOX17 and cell number (Example 20, Table 17)
Format: cell-based
Settings: for Cell Number, Average Total Cell Number / Sox17 Expression, Average Total Intensity / Cell Number, % of positive control / Sox17 Expression, % of positive control: Plate 1; for Cell Number, % of positive control / Sox17 Expression, % of positive control: positive control = Activin A/Wnt3a
[1] = compound in combination with GDF8
[2] = growth factor treatment alone, no compound

| Molecule | SOX17 expression in the presence of GDF-8 (2.5 μM compound with 100 ng/ml GDF-8, four days) | Cell Number, Average Total Cell Number [1] | Sox17 Expression, Average Total Intensity [1] | Cell Number, % of positive control [1] | Sox17 Expression, % of positive control [1] | Cell Number, Average Total Cell Number [2] | Sox17 Expression, Average Total Intensity [2] | Cell Number, % of positive control [2] | Sox17 Expression, % of positive control [2] |
| --- | --- | --- | --- | --- | --- | --- | --- | --- | --- |
| O=C1CCN2CCN(CC2)Cc2cc(Cl)cc(c2)Nc2ncnc(n2)-c2cncc(c2)CCCN1 [Compound 34, 5-Chloro-1,8,10,12,16,22,26,32-octaazapentacyclo[24.2.2.1˜3.7˜0.1˜9,13˜0.1˜14.18˜]tritriaconta-3(33), 4,6,9(32), 10,12,14(31), 15,17-nonaen-23-one] | induced significant SOX17 expression | 13926 | 2.6E+08 | 96.2 % of positive control | 111.8 % of positive control | – | – | – | – |
| GDF-8: growth factor GDF-8, also known as myostatin, member of the TGF-β family | – | – | – | – | – | 2856 | 2.2E+07 | 19.7 % of positive control | 9.4 % of positive control |
